Literature values, collected in patent publication US20080107726A1, “COMPOSITIONS COMPRISING BETA-ADRENERGIC RECEPTOR ANTAGONISTS AND DIURETICS” (priority 2006, published 2008).
Counter-ions that a name gives are not always drawn. Like-named read-outs stand apart in the source and are kept apart here.

Structure (SMILES): COCCc1ccc(OCC(O)CNC(C)C)cc1 (racemic) [Metoprolol succinate, (±)-1-(isopropylamino)-3-[p-(2-methoxyethyl)phenoxy]-2-propanol succinate (2:1) (salt)]
- Solubility (in dichloromethane and 2-propanol): slightly soluble
- Solubility (in ethanol): sparingly soluble
- Solubility (in ethyl acetate, acetone, diethylether and heptane): practically insoluble
- Solubility (in methanol): soluble
- Solubility (in water): freely soluble
